Experimental data as given in PMC7870626, “Neurotoxicity and underlying cellular changes of 21 mitochondrial respiratory chain inhibitors” (Archives of Toxicology, 2021).
“Also recorded” adds a separate entry of the source.

How the values were obtained:
U2OS cells = assay: cells; assay type: cell-based; conditions: Homo sapiens, U2OS, 24 h, read-out: Cytotox EC25 U2OS
Method: A cell suspension of 100,000 cells/ml was prepared in assay medium, and white 384-well plates were filled with 30 µl/well cell suspension. Twenty-four hours after seeding, a dilution series of test compound, as well as positive and negative controls, were added to the cells. After 24 h exposure, the medium was removed, and 10 µl of Triton X-100 lysis buffer was added to each well. The luminescent signal was determined in a luminometer by injecting BDS Illuminate Mix and measuring the light emission. The Cytotox CALUX cell line constitutively expresses a high level of luciferase protein; the light emission is therefore proportional to the cell number of live cells, and its decrease can be used as measure of cytotoxicity. The light emission generated by cells exposed to vehicle control was set to 100%, and the luminescence of cells exposed to the positive control toxicant tributyltin acetate [100 µM] was set to 0%. The light output of the cells exposed to different concentrations of test compounds was scaled accordingly.

LUHMES cells [1] = assay: Intracellular ATP content after NeuriTox exposure; assay type: cell-based; conditions: Homo sapiens; NeuriTox exposure scheme, 24 h; read-out: LUHMES 24 h EC25 ATP (converted)
Method: (§1) The NeuriTox test was performed as previously described (Delp et al. [2018b]; Krug et al. [2013a]; Stiegler et al. [2011]). Briefly, cells differentiated for 48 h were re-seeded into 96-well plates at a density of 100,000 cells/cm^2 in DM without cAMP and GDNF, and treated 1 h after seeding for 24 h. Subsequently, multiple endpoints were determined, e.g., neurite outgrowth (i.e., NeuriTox test), resazurin reduction, intracellular ATP content, gene expression levels from TempO-Seq analysis, and proteasomal activity. For the 120 h exposure scenario, LUHMES cells were differentiated for another 3 days after reseeding before they were treated on day 5 (d5) and d7 by a half medium exchange. Endpoints were determined on d10 of differentiation.
Plates from the NeuriTox test were further used after imaging for determination of alternative endpoints. Intracellular ATP was determined as described earlier (Delp et al. [2019]). In brief, CellTiterGlo 2.0 assay mix (Promega) containing luciferase was added after imaging, and luminescence was recorded. For the determination of resazurin reduction, a 10 × resazurin stock solution was added after imaging to the medium (final resazurin concentration 2 µg/ml) (Delp et al. [2018a]). After 60 min incubation, resazurin fluorescence was recorded (ex: 530 nm, em: 590 nm). Background-corrected data was used for further analysis.

LUHMES cells [2] = assay: NeuriTox test: neurite area and viability, 24 h; assay type: cell-based, human; conditions: Homo sapiens
Method: as §1
(§2) Image acquisition and analysis was performed as described previously (Krug et al. [2013a]; Schildknecht et al. [2013]; Stiegler et al. [2011]). In brief, cells were live-stained with 1 µg/ml Hoechst H-33342 and 1 µM calcein-AM and image acquisition was done by an automated high content imager (Cellomics, Waltham, MA, USA). Cell viability was determined as ratio of live cells (cell bodies being Calcein- and Hoechst-positive) relative to the total amount of cells (Hoechst-positive cell bodies). Neurite area was calculated by subtracting the somatic area (Hoechst-positive area plus surrounding) from the calcein-positive area.

SH-SY5Y cells [3] = assay: Mitochondrial membrane potential (rhodamine 123), KE2 assay; assay type: cell-based, human; conditions: Homo sapiens, SH-SY5Y, 24 h, read-out: pEC25 MMP (concentration where MMP was reduced by 25%)
Method: Cells were plated at a cell density of 29,500 cells/cm^2 and handled as described above for the neurite SH-SY5Y degeneration. On d6 of differentiation, 50% of the medium was replaced by differentiation medium containing 2 µM Rhodamine 123 (ThermoFisher). After 45 min of preloading at 37 °C with 5% CO2 in darkness, the Rhodamine 123 solution was completely removed and cells were carefully washed once with 200 µl DMEM:F12. Subsequently, 50 µl differentiation medium per well were added followed by the addition of 50 µl/well of test compounds in medium. After 24 h of exposure to the test compounds, the nuclei were stained for 30 min with 20 µL of a solution containing 20 µM Hoechst 33342, and the images were then acquired with a 10 × objective lens using the ImageXpress® Micro (Molecular Devices) high content microplate imager. Nuclei were evaluated in the DAPI channel (excitation 377 ± 50 nm, emission 447 ± 60 nm), whereas Rhodamine 123 fluorescence was detected in the FITC channel (excitation 475 ± 34 nm, emission 536 ± 40 nm). Analysis of the Hoechst 33,342 and Rhodamine 123 fluorescence was performed using the MetaXpress® Software (Molecular Devices) with the Transfluor HT plug-in and the parameters nuclei (for Hoechst-33342) and integrated granule intensity (for Rhodamine 123). Mitochondrial membrane potential (MMP) was quantified as the total fluorescence intensity of Rhodamine 123 in relation to the number of Hoechst-stained nuclei.

SH-SY5Y cells [4] = assay type: cell-based, human; conditions: 120 h exposure, up to 10 µM
Method: The cells are able to form neurites and display several dopaminergic characteristics. […] Differentiation was initiated 24 h later (on day 0, d0) by exchange to 100 µl/well differentiation medium (DMEM:F12, supplemented with 1 µM all-trans retinoic acid (RA), 1 × N2 supplement, 2 mM L-glutamine, 100 µg/ml streptomycin, and 100 U/ml penicillin). All media and supplements were obtained from Gibco (ThermoFisher) except from RA (Sigma).
On d3, 100 µl of fresh differentiation medium were added to the wells. For the 120 h exposure, this medium contained twice the final treatment concentration. On d6, 100 µl from each well were removed, and the procedure was repeated and the cells were analyzed on d8. For the 24 h exposure, cells received an addition of 100 µl pure differentiation medium on d3 and were treated with compounds as described above on d6 for 24 h before analysis. […] The cells were incubated with the stain mixture for 20 min at 37 °C, 5% CO2. After incubation, 130 µL of differentiation medium were added to all the wells to stop further staining of the cells. Images were obtained using ImageXpress® Micro (Molecular Devices). […] The mean neurite length was calculated using the Neurite Outgrowth plug-in in the MetaXpress® Software. Outgrowths were defined as cytoplasmic prolongations with a maximum width of 2 µm (3 pixels). The minimum outgrowth size needed to be logged as significant was defined as 15 µm (23 pixels).

LUHMES cells [5] = assay: LUHMES 120 h exposure scenario, neurite effects; assay type: cell-based, human
Method: as §1, §2

Cc1nn(C)c(Oc2ccccc2)c1C=NOCc1ccc(C(=O)OC(C)(C)C)cc1 [Fenpyroximate]
EC25 (U2OS cells): > 50.1 µM
EC25 (LUHMES cells [1]): 12.6 µM
EC25 (LUHMES cells [2]; NeuriTox exposure scheme, 24 h, read-out: LUHMES 24 h EC25 NA (neurite area) (converted)): 15.8 µM
EC25 (LUHMES cells [2]; NeuriTox exposure scheme, 24 h, read-out: LUHMES 24 h EC25 V (viability) (converted)): 39.8 µM
EC25 (LUHMES cells [2]; NeuriTox test, neurite outgrowth impairment, LUHMES 24 h, read-out: EC25 KE4 (AO) Neurite toxicity (converted)): 15.8 µM
EC25 (SH-SY5Y cells [3]): 0.794 µM
Neurite degeneration (in words) (SH-SY5Y cells [4]): degeneration of neurites; also recorded: increased neurite degeneration
Reduction in viability (SH-SY5Y cells [4]): > 25%
Increase in sensitivity of neurite EC25, 120 h versus 24 h exposure (LUHMES cells [5]): five-to-eightfold
